According to patent US20140163226A1, “NOVEL PYRIMIDINE DERIVATIVE AND PHARMACEUTICAL COMPOSITION INCLUDING SAME AS AN ACTIVE INGREDIENT” (HANMI PHARMACEUTICAL CO., LTD., priority 2011, published 2014):
pIC50: −log10 of the molar value.

These compounds were tested against T1, DGAT1 (Homo sapiens, UniProt O75907) (assay: Assay for inhibition of DGAT1 activity (IC50), in vitro enzymatic assay using homogenates of HepG2 cell line). Settings: inhibitory activity against DGAT1; HepG2 protein (25 μg), 1,2-dioleoyl-sn-glycerol (30 μM), 14C oleoyl coenzyme A (10 μM), room temperature, 60 mins.
T1 construct: host or cells: HepG2 cell homogenate (supernatant after sonication and 2000×g centrifugation)
T1 sequence (O75907 1-488): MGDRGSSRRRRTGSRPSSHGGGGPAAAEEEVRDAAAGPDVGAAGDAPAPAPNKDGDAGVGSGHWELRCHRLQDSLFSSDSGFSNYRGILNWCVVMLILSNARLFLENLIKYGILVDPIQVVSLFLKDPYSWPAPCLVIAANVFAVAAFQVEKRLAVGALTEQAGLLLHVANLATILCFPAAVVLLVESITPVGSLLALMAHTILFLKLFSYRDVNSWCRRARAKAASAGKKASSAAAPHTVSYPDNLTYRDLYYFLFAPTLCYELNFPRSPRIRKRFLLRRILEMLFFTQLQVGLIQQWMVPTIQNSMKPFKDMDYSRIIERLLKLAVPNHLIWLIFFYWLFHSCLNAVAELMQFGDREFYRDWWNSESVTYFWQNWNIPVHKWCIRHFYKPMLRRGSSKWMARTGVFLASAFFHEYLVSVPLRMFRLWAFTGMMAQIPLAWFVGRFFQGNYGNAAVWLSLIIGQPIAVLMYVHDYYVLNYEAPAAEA
Format: biochemical
Description: In order to identify DGAT1 inhibitors, in vitro enzymatic assays were performed by using homogenates of HepG2 cell line (ATCC, USA, HB-8065). Briefly stated, HepG2 cells were inoculated in 10% FBS-supplemented medium at 1.0×10^7 cells/well, cultured at 37° C., and harvested 72 hrs later. The harvested cells were lysed by ultrasonic treatment, and centrifuged for at 4° C. (2000×g, 10 mins) to remove any uncracked cells and impurities. The supernatant thus formed was obtained, and stored at −70° C. after its protein contents were quantitatively analyzed.
DGAT1 activation was assayed by a modification of the method described by Coleman (Methods in Enzymology, 1992, 209, 98-102). The compound of the present invention ([…]) was incubated with HepG2 protein (25 μg), MgCl2 (150 mM) and 1,2-dioleoyl-sn-glycerol (30 μM) in a total assay volume of 200 μL in plastic tubes.
The reaction was started by adding ^14C oleoyl coenzyme A (10 μM final concentration) and incubated at room temperature for 60 mins. The reaction was ended when a mixed solution (300 μL) of 2-propanol and heptane (7:1) was added thereto. Radioactive triolein product was separated into the organic phase by adding heptane (200 μL) and 1.0 M carbonate buffer (200 μL, pH 9.5). DGAT1 activity was quantified by counting aliquots of the upper heptane layer by liquid […].

| pIC50 | Compound |
| --- | --- |
| > 8.30 | O=C(O)Cc1ccc(-c2csc3c(-c4ccc(NC(=O)Nc5ccccc5)cc4)ncnc23)cc1 [Example 1, 2-(4-(4-(4-(3-phenylureido)phenyl)thieno[3,2-d]pyrimidin-7-yl)phenyl)acetic acid] |
| > 9.00 | O=C(Nc1ccc(-c2ncnc3c(-c4ccc(C(=O)O)cc4)csc23)cc1)Nc1cccc(Cl)c1 [Example 3, 4-(4-(4-(3-(3-chlorophenyl)ureido)phenyl)thieno[3,2-d]pyrimidin-7-yl)benzoic acid] |
| > 8.30 | O=C(O)CCc1ccc(-c2csc3c(-c4ccc(NC(=O)Nc5ccc(F)c(F)c5)cc4)ncnc23)cc1 [Example 14, 3-(4-(4-(4-(3-(3,4-difluorophenyl)ureido)phenyl)thieno[3,2-d]pyrimidin-7-yl)phenyl)propanoic acid] |
| > 8.30 | COc1cc(NC(=O)Nc2ccc(-c3ncnc4c(-c5ccc(CCC(=O)O)cc5)csc34)cc2)cc(OC)c1OC [Example 24, 3-(4-(4-(4-(3-(3,4,5-trimethoxyphenyl)ureido)phenyl)thieno[3,2-d]pyrimidin-7-yl)phenyl)propanoic acid] |
| > 8.30 | NC(=O)CCc1ccc(-c2csc3c(-c4ccc(NC(=O)Nc5cccc(Cl)c5)cc4)ncnc23)cc1 [Example 28, 3-(4-(4-(4-(3-(3-chlorophenyl)ureido)phenyl)thieno[3,2-d]pyrimidin-7-yl)phenyl)propanamide] |
| > 9.00 | O=C(O)CCc1ccc(-c2csc3c(-c4ccc(NC(=O)Nc5cccc(Cl)c5)cc4)ncnc23)cc1F [Example 30, 3-(4-(4-(4-(3-(3-chlorophenyl)ureido)phenyl)thieno[3,2-d]pyrimidin-7-yl)-2-fluorophenyl)propanoic acid] |
| > 8.00 | O=C(O)Cc1ccc(-c2csc3c(-c4ccc(NC(=O)Nc5ccnc(Cl)c5)cc4)ncnc23)cc1 [Example 34, 2-(4-(4-(4-(3-(2-chloropyridin-4-yl)ureido)phenyl)thieno[3,2-d]pyrimidin-7-yl)phenyl)acetic acid] |
| > 8.30 | O=C(O)CCc1ccc(-c2csc3c(-c4ccc(NC(=O)Nc5cc(Cl)ccn5)cc4)ncnc23)cc1 [Example 42, 3-(4-(4-(4-(3-(4-chloropyridin-2-yl)ureido)phenyl)thieno[3,2-d]pyrimidin-7-yl)phenyl)propanoic acid] |
| > 9.00 | O=C(O)CCc1ccc(-c2csc3c(-c4ccc(NC(=O)Nc5ccc(-c6nn[nH]n6)cc5)cc4)ncnc23)cc1 [Example 49, 3-(4-(4-(4-(3-(4-(2H-tetrazol-5-yl)phenyl)ureido)phenyl)thieno[3,2-d]pyrimidin-7-yl)phenyl)propanoic acid] |
| > 7.70 | CN1CCN(c2ccc(NC(=O)Nc3ccc(-c4ncnc5c(-c6ccc(CCC(=O)O)cc6)csc45)cc3)cc2)CC1 [Example 50, 3-(4-(4-(4-(3-(4-(4-methylpiperazin-1-yl)phenyl)ureido)phenyl)thieno[3,2-d]pyrimidin-7-yl)phenyl)propanoic acid] |
| > 9.00 | O=C(O)CCc1ccc(-c2csc3c(-c4ccc(NC(=O)Nc5ccc(N6CCCC6)cc5)cc4)ncnc23)cc1 [Example 52, 3-(4-(4-(4-(3-(4-(pyrrolidin-1-yl)phenyl)ureido)phenyl)thieno[3,2-d]pyrimidin-7-yl)phenyl)propanoic acid] |
| > 7.30 | O=C(O)CCc1ccc(-c2csc3c(-c4ccc(NC(=O)Nc5ccc(-n6cnnc6)cc5)cc4)ncnc23)cc1 [Example 53, 3-(4-(4-(4-(3-(4-(4H-1,2,4-triazol-4-yl)phenyl)ureido)phenyl)thieno[3,2-d]pyrimidin-7-yl)phenyl)propanoic acid] |

The next lines start with the compound.

| Compound | pIC50 |
| --- | --- |
| O=C(O)Cc1ccc(-c2csc3c(-c4ccc(NC(=O)Nc5cccc(Cl)c5)cc4)ncnc23)cc1 [Example 2, 2-(4-(4-(4-(3-(3-chlorophenyl)ureido)phenyl)thieno[3,2-d]pyrimidin-7-yl)phenyl)acetic acid] | > 9.00 |
| O=C(O)Cc1ccc(-c2csc3c(-c4ccc(NC(=O)Nc5ccc(F)c(F)c5)cc4)ncnc23)cc1 [Example 4, 2-(4-(4-(4-(3-(3,4-difluorophenyl)ureido)phenyl)thieno[3,2-d]pyrimidin-7-yl)phenyl)acetic acid] | > 9.00 |
| O=C(O)CCc1ccc(-c2csc3c(-c4ccc(NC(=O)Nc5cccc(Cl)c5)cc4)ncnc23)cc1 [Example 7, 3-(4-(4-(4-(3-(3-chlorophenyl)ureido)phenyl)thieno[3,2-d]pyrimidin-7-yl)phenyl)propanoic acid] | > 9.00 |
| COc1ccc(NC(=O)Nc2ccc(-c3ncnc4c(-c5ccc(CCC(=O)O)cc5)csc34)cc2)cc1 [Example 15, 3-(4-(4-(4-(3-(4-methoxyphenyl)ureido)phenyl)thieno[3,2-d]pyrimidin-7-yl)phenyl)propanoic acid] | > 8.30 |
| O=C(O)Cc1ccc(-c2csc3c(-c4ccc(NC(=O)NC5CCCCC5)cc4)ncnc23)cc1 [Example 16, 2-(4-(4-(4-(3-cyclohexylureido)phenyl)thieno[3,2-d]pyrimidin-7-yl)phenyl)acetic acid] | > 9.00 |
| COc1ccccc1NC(=O)Nc1ccc(-c2ncnc3c(-c4ccc(CCC(=O)O)cc4)csc23)cc1 [Example 20, 3-(4-(4-(4-(3-(2-methoxyphenyl)ureido)phenyl)thieno[3,2-d]pyrimidin-7-yl)phenyl)propanoic acid] | > 8.30 |
| Cc1ccc(NC(=O)Nc2ccc(-c3ncnc4c(-c5ccc(CCC(=O)O)cc5)csc34)cc2)cc1 [Example 21, 3-(4-(4-(4-(3-p-tolylureido)phenyl)thieno[3,2-d]pyrimidin-7-yl)phenyl)propanoic acid] | > 9.00 |
| CS(=O)(=O)c1ccc(-c2csc3c(-c4ccc(NC(=O)Nc5cccc(Cl)c5)cc4)ncnc23)cc1 [Example 31, 1-(3-chlorophenyl)-3-(4-(7-(4-(methylsulfon)phenyl)thieno[3,2-d]pyrimidin-4-yl)phenyl)urea] | > 8.00 |
| CN(C)c1ccc(NC(=O)Nc2ccc(-c3ncnc4c(-c5ccc(CC(=O)O)cc5)csc34)cc2)cc1 [Example 35, 2-(4-(4-(4-(3-(4-(dimethylamino)phenyl)ureido)phenyl)thieno[3,2-d]pyrimidin-7-yl)phenyl)acetic acid] | > 8.00 |
| O=C(O)CCc1ccc(-c2csc3c(-c4ccc(NC(=O)Nc5cccc(F)c5)cc4)ncnc23)cc1 [Example 39, 3-(4-(4-(4-(3-(3-fluorophenyl)ureido)phenyl)thieno[3,2-d]pyrimidin-7-yl)phenyl)propanoic acid] | > 9.00 |
| CN(C)c1ccc(NC(=O)Nc2ccc(-c3ncnc4c(-c5ccc(CCC(=O)O)cc5)csc34)cc2)cc1 [Example 40, 3-(4-(4-(4-(3-(4-(dimethylamino)phenyl)ureido)phenyl)thieno[3,2-d]pyrimidin-7-yl)phenyl)propanoic acid] | > 9.00 |
| O=C(O)CCc1ccc(-c2csc3c(-c4ccc(NC(=O)Nc5ccc(N6CCOCC6)cc5)cc4)ncnc23)cc1 [Example 44, 3-(4-(4-(4-(3-(4-morpholinophenyl)ureido)phenyl)thieno[3,2-d]pyrimidin-7-yl)phenyl)propanoic acid] | > 8.00 |
| COc1ccc(Cl)c(NC(=O)Nc2ccc(-c3ncnc4c(-c5ccc(CCC(=O)O)cc5)csc34)cc2)c1 [Example 46, 3-(4-(4-(4-(3-(2-chloro-5-methoxyphenyl)ureido)phenyl)thieno[3,2-d]pyrimidin-7-yl)phenyl)propanoic acid] | > 8.30 |
| CN1CCC(NC(=O)Nc2ccc(-c3ncnc4c(-c5ccc(CCC(=O)O)cc5)csc34)cc2)CC1 [Example 51, 3-(4-(4-(4-(3-(1-methylpiperidin-4-yl)ureido)phenyl)thieno[3,2-d]pyrimidin-7-yl)phenyl)propanoic acid] | > 9.00 |
| O=C(O)CCc1ccc(-c2csc3c(-c4ccc(NC(=O)Nc5cccc(C(F)(F)F)c5F)cc4)ncnc23)cc1 [Example 55, 3-(4-(4-(4-(3-(2-fluoro-3-(trifluoromethyl)phenyl)ureido)phenyl)thieno[3,2-d]pyrimidin-7-yl)phenyl)propanoic acid] | > 8.30 |
| Cn1cc(-c2ccc(CCC(=O)O)cc2)c2ncnc(-c3ccc(NC(=O)Nc4ccccc4Cl)cc3)c21 [Example 57] | > 7.30 |
| CC(C)(C(=O)O)c1ccc(-c2csc3c(-c4ccc(NC(=O)Nc5cccc(Cl)c5)cc4)ncnc23)cc1 [Example 59, 2-(4-(4-(4-(3-(3-chlorophenyl)ureido)phenyl)thieno[3,2-d]pyrimidin-7-yl)phenyl)-2-methylpropanoic acid] | > 9.00 |
